From patent publication US20020106347A1, “Cytokines and their use in treatment and/or prophylaxis of breast cancer” (priority 1995, published 2002)
“Also recorded” adds a separate entry of the source.

Legend:
MCF-7 cells [1] = assay: Proliferation of MCF-7 cells in monolayer (liquid) culture, viable cell count; type: cell-based, human; conditions: for mean inhibition of cell proliferation: MCF-7, 7 days exposure, LIF 1000 U/ml, IL-6 100 ng/ml, OSM 10 ng/ml, IL-11 100 ng/ml, vs untreated control; for effect on cell proliferation (in words): MCF-7 / MCF-7M, up to 1 week culture
Description: FIGS. 2A, B and C are graphical representations of MCF-7M cells in liquid culture. 10^4 MCF-7M cells were cultured in 500 μl RPMI/10% bovine calf serum (BCS) (v/v) containing the indicated concentration of each of the growth factors (OSM or LIF). After 7 days culture viable cells were counted using a hemacytometer. Cell numbers reported here are the result of one experiment, each performed in triplicate.
FIG. 7 is a graphical representation showing inhibition of proliferation of MCF-7 cells by Oncostatin M (OSM). 10^4 MCF-7 cells were cultured in 500 μl RPMI/10% (v/v) BCS with the indicated concentrations of OSM. At 2, 4 and 6 days, viable cells were counted using a hemacytometer. Results are from 3 experiments, each performed in triplicate.
FIG. 8 is a graphical representation showing that MCF-7 cells are inhibited in a dose-dependent fashion by Oncostatin M (OSM). 10^4 MCF-7 cells were cultured in 500 μl RPMI/10% (v/v) BCS with the indicated concentrations of OSM. After 7 days viable cells were counted, and cell number expressed as a percentage of the corresponding untreated control value.
FIG. 16 is a graphical representation showing inhibition of MCF-7 cells after 7 days in suspension culture. 10^4MCF-7 cells were cultured in 500 μl RPMI/10% (v/v) BCS with the indicated growth factor. After 7 days viable cells were counted using a hemacytometer. Results are from 9 experiments, each performed in triplicate.
Proliferation of the cell lines was measured in monolayer culture in 24 well Costar cluster plates. Cells were plated at an initial density of 10 000 cells/ml and cultured in 500 μl RPMI-1640 supplemented with 10% (v/v) (v/v) BCS and with each growth factor as indicated (LIF, 1000 U/ml; IL-6, 100 ng/ml; OSM, 10 ng/ml; CNTF, 10 ng/ml; IL-11, 100 ng/ml). These concentrations are maximally active in other systems (Nandurkar et al., 1996; Hilton et al., 1994; Zhang et al., 1994; Tanigawa et al., 1995). After 7 or 10 days at 37° C. in a fully humidified atmosphere containing 10% (v/v) CO2 in air, cells were trypsinised and counted using a haemocytometer and an inverted microscope. Cell viability was assessed using eosin exclusion. Results were expressed as a percentage of the corresponding untreated control value for that experiment.

T47D = assay: Receptor binding of radioiodinated ligand to T-47D cells; set-up: species or system human; conditions: 125I-ligand, room temperature 60 min
Description: Receptor binding assays were performed using radioiodinated LIF (^125I-LIF) and OSM (^125I-OSM). The radioiodination of LIF and OSM and binding assays were essentially performed as previously described (Hilton et al., 1991; Hilton and Nicola, 1992). Briefly, 50 μl aliquots containing 1×10^7 cells, suspended in RPMI-1640 medium containing 10% (v/v) BCS, were placed in Falcon tubes with 40 μl of the respective radioiodinated ligand at 1×10^5 cpm per 40 μl, with or without greater than a 40-fold excess of unlabelled ligand. Incubation was carried out at room temperature for 60 min and cells were resuspended and layered over 180 μl of (v/v) BCS. Cell associated and free radioiodinated ligand were separated by centrifugation. The pellet and supernatant were subsequently counted in a γ-counter. Specific binding was estimated by subtraction of non specific binding from binding with ^125I-ligand (total binding). Number of cell surface receptors and dissociation constant were calculated by Scatchard analysis.

MCF-7 cells [2] = assay: Cell morphology after exposure to growth factor; type: cell-based, human; conditions: MCF-7 / MCF-7M, 6-14 days in growth factor
Text: FIG. 4 is a photographic representation showing morphology of growth factor stimulated MCF-7M cells. Following 1 week in suspension culture containing the various growth factors, MCF-7M cells were cytospun onto slides and subsequently stained with Giemsa.
FIG. 11 is a photographic representation showing cell morphology after exposure to OSM. MCF-7 cells from control cultures and appears of cells after 7 days in OSM. A) Control cells, 10× magnification. B) OSM treated cells, 10× magnification. C) OSM treated cells, 40× magnification. D) OSM treated cells, 100× magnification.
FIG. 15 is a photographic representation showing cell morphology after exposure to OSM. MCF-7 cells from control cultures (Panel A) and appearance of cells after culture for 14 days in OSM (10 ng/ml) (Panel B). MDA-MB-231 cells from control cultures (Panel C) and appearance of cells after culture for 7 days in OSM (Panel D).

[3] = system: primary normal breast cells; assay: Growth of primary normal breast cells in suspension culture; type: cell-based, human; conditions: serum free breast media, 7 days
Description: FIG. 6 is a graphical representation of primary normal breast cells in suspension culture. 10^4 primary normal breast cells were cultured in 500 μl serum free breast media containing the indicated concentration of each of the growth factors (OSM and […]). After 7 days culture viable cells were counted using a hemacytometer. Cell numbers reported here are the results of 1 experiment, performed in triplicate.
Sterile normal breast tissue was obtained from reduction mammoplasty surgery. […] After 18 hours the mixture was centrifuged at 600 RCF/5 min, the supernatant discarded and the remaining cell pellet washed twice in RPMI-1640 supplemented with 10% (v/v) (v/v) BCS. […] Single cells adhered to the culture flasks and from these islands of cells epithelial cells grew. The media was subsequently removed and replaced with serum-free breast media. Partial trypsinisation removed any contaminating fibroblasts and the cells remaining were 95-100% epithelial. Cells were subsequently grown for approximately 30 days in the serum free breast media.

ER in MCF-7 cells = assay: ER expression by antibody staining on chamber slides; type: cell-based, human; conditions: MCF-7, 6 days
Description: (§1) MCF-7 cells were grown on chamber slides for 6 days in RPMI/10% (v/v) BCS with the following growth factors, prior to being stained with an antibody specific for ER. […] Cells stained brown indicate ER positivity.
as §1

Row | Substance | mean inhibition of cell proliferation (MCF-7 cells [1]) [%] | effect on cell proliferation (in words) (MCF-7 cells [1]) | specific binding(cpm)/10^6 cells (T47D) | cell morphology (in words) (MCF-7 cells [2]) | inhibition of cell proliferation, up to (maximum observed) (MCF-7 cells [1]; MCF-7, 7 days exposure to OSM, 9 experiments) | effect on proliferation (in words) [3] | cells staining very weakly for ER (ER in MCF-7 cells) [%]
1 | Leukemia Inhibitory Factor [LIF] | 37 | induced inhibition | 380 +/− 10 cpm | appeared larger than the control cells | – | – | –
2 | oncostatin M [OSM] | 85 | inhibition of cell proliferation; also recorded: inhibition of cellular proliferation | 1400 +/− 20 cpm | more abundant cytoplasm and vacuolation; also recorded: more fibroblastic phenotype; also recorded: larger and more vacuolated than control cells | up to 94% | profoundly inhibited the proliferation | 50
